Experimental data as given in patent US9533978B2 (AstraZeneca AB, priority 2009, dated 2017).

These molecules were tested against T1, Recombinant human TLR7 (Homo sapiens, UniProt Q9NYK1) (assay: Human TLR7 assay (HEK293 SEAP reporter)). Settings: degree of TLR7 activation; SEAP induction in HEK293 cells stably expressing recombinant human TLR7 and pNiFty2-SEAP reporter, overnight incubation at 37° C., 0.1% (v/v) DMSO.
T1 construct: expressed in transfected cells; host or cells: HEK293 cell line stably expressing the pNiFty2-SEAP reporter plasmid; TLR7 in vector pUNO, blasticidin selection
T1 sequence (Q9NYK1 27-1049): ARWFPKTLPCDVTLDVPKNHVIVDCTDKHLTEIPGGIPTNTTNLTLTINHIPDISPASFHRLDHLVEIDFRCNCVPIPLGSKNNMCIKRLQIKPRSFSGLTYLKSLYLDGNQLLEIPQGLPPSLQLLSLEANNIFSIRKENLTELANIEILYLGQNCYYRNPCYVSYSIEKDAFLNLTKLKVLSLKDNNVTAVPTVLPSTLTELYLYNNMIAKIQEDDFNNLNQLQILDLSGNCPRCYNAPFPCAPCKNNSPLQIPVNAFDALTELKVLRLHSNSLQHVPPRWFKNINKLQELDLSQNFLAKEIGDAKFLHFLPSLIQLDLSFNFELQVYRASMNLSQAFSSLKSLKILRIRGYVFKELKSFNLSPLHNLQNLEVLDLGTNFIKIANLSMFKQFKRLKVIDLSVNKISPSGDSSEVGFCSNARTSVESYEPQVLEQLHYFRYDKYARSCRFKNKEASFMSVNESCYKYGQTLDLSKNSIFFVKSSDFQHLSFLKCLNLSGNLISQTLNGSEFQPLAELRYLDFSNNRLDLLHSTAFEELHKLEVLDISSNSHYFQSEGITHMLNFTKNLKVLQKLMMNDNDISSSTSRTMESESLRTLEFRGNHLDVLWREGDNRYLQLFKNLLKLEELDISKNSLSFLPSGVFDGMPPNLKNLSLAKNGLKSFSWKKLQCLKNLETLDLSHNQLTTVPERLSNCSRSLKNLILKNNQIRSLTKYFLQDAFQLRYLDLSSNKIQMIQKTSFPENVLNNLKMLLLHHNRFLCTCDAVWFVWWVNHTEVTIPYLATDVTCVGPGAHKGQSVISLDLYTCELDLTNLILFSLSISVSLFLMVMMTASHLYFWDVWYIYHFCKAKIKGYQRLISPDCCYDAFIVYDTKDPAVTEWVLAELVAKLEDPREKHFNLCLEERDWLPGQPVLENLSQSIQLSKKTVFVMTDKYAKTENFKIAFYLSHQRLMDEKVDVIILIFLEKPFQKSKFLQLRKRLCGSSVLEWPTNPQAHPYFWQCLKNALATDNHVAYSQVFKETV
Type: cell-based
Method: The ability of compounds to activate TLR7 in vitro was assessed using the human TLR7 assay described below.
Recombinant human TLR7 was stably expressed in a HEK293 cell line already stably expressing the pNiFty2-SEAP reporter plasmid; integration of the reporter gene was maintained by selection with the antibiotic zeocin. The most common variant sequence of human TLR7 (represented by the EMBL sequence AF240467) was cloned into the mammalian cell expression vector pUNO and transfected into this reporter cell-line. Transfectants with stable expression were selected using the antibiotic blasticidin. In this reporter cell-line, expression of secreted alkaline phosphatase (SEAP) is controlled by an NFkB/ELAM-1 composite promoter comprising five NFkB sites combined with the proximal ELAM-1 promoter. TLR signaling leads to the translocation of NFkB and activation of the promoter results in expression of the SEAP gene. TLR7-specific activation was assessed by determining the level of SEAP produced following overnight incubation of the cells at 37° C. with the standard compound in the presence of 0.1% (v/v) dimethylsulfoxide (DMSO). Concentration dependent induction of SEAP production by compounds was expressed as the concentration of compound which produced half of the maximal level of SEAP induction for that compound (EC50).

EC50 [µM]	SMILES
0.316	COC(=O)Cc1cccc([C@@H](CCO)Nc2nc(N)nc(C)c2Cc2ccc(OCCCN(C)C)cc2OC)c1 [Example 35, (R)-Methyl 2-(3-(1-(2-amino-5-(4-(3-(dimethylamino)propoxy)-2-methoxybenzyl)-6-methylpyrimidin-4-ylamino)-3-hydroxypropyl)phenyl)acetate]
0.0501	CCCCCNc1nc(N)nc(C)c1Cc1ccc(OCCCO)cc1OC [Example 36, 3-(4-((2-Amino-4-methyl-6-(pentylamino)pyrimidin-5-yl)methyl)-3-methoxyphenoxy)propan-1-ol]
0.00794	CCCCCNc1nc(N)nc(C)c1Cc1ccc(OCCCN2CCOCC2)cc1OC [Example 37, 5-(2-Methoxy-4-(3-morpholinopropoxy)benzyl)-6-methyl-N^4-pentylpyrimidine-2,4-diamine]
0.00631	CCCCCNc1nc(N)nc(C)c1Cc1ccc(OCCCN2CCN(C)CC2)cc1OC [Example 38, 5-(2-Methoxy-4-(3-(4-methylpiperazin-1-yl)propoxy)benzyl)-6-methyl-N^4-pentylpyrimidine-2,4-diamine]
0.00398	CCCCCNc1nc(N)nc(C)c1Cc1ccc(CCCCN(C)C)cc1OC [Example 39, 5-(4-(4-(Dimethylamino)butyl)-2-methoxybenzyl)-6-methyl-N^4-pentylpyrimidine-2,4-diamine]
0.02	CCC[C@@H](CO)Nc1nc(N)nc(C)c1Cc1ccc(CO)cc1OC [Example 40, (S)-2-(2-Amino-5-(4-(hydroxymethyl)-2-methoxybenzyl)-6-methyl-pyrimidin-4-ylamino)pentan-1-ol]
